Assay results reported in US20070060639A1, “Compositions and methods for intranasal delivery of tricyclic cannabinoids” (University of Kentucky, priority 2005, published 2007).
Where two headings read alike, the source gives them in different places.

How the values were obtained:
[1] = intranasally at 1.14-1.33 mg/kg, rat model, period from 15 to 120 minutes after administration; cited from earlier work
[2] = rat; for F: F = (AUCIN × DoseIV)/(AUCIV × DoseIN); for concentration at 0 minutes / concentration at 0.5 minutes / concentration at 5 minutes / concentration at 15 minutes / concentration at 30 minutes / concentration at 60 minutes / concentration at 120 minutes / concentration at 160 minutes / concentration at 240 minutes / concentration at 300 minutes / concentration at 360 minutes / concentration at 420 minutes / concentration at 480 minutes: Mean plasma concentration of THC
[3] = male, Sprague-Dawley, plasma, inhaled or intranasal, 9.84 mg/kg
[4] = male, Sprague-Dawley, plasma, inhaled or intranasal, 9.91 mg/kg
[5] = male, Sprague-Dawley, plasma, iv, 0.99 mg/kg
[6] = male, Sprague-Dawley, plasma, iv, 1 mg/kg, Intravenous (1 mg/kg), propylene glycol, n = 3, rat
[7] = male, Sprague-Dawley, plasma, other: intranasal, 10 mg/kg, Intranasal (10 mg/kg), 90:10 propylene glycol/ethanol, n = 5, rat
[8] = male, Sprague-Dawley, plasma, other: intranasal, 10 mg/kg, Intranasal (10 mg/kg), propylene glycol, n = 3, rat

CCCCCc1cc(O)c2c(c1)OC(C)(C)[C@@H]1CCC(C)=C[C@@H]21 [THC, delta-9-tetrahydrocannabinol]
analgesic response [1]: an analgesic response was observed
F ([2]; Intranasal (IN), 90:10 propylene glycol/ethanol, 9.91 mg/kg): 0.138
F ([2]; Intranasal (IN), propylene glycol, 9.84 mg/kg): 0.136
F ([2]; Intravenous (IV), propylene glycol, 0.99 mg/kg): 1
AUC [2, 3]: 428 ng·h/mL
Cmax [2, 3]: 55 ng/mL
Tmax [2, 3]: 3 h
AUC [2, 4]: 434 ng·h/mL
Cmax [2, 4]: 75 ng/mL
Tmax [2, 4]: 2 h
AUC [2, 5]: 314 ng·h/mL
Cmax [2, 5]: 693 ng/mL
Tmax [2, 5]: 0.0083 h
concentration at 0 minutes [2, 6]: 0 ng/mL
concentration at 0.5 minutes [2, 6]: 693 ng/mL
concentration at 5 minutes [2, 6]: 136 ng/mL
concentration at 15 minutes [2, 6]: 73 ng/mL
concentration at 30 minutes [2, 6]: 48 ng/mL
concentration at 60 minutes [2, 6]: 34 ng/mL
concentration at 120 minutes [2, 6]: 24 ng/mL
concentration at 160 minutes [2, 6]: 23 ng/mL
concentration at 240 minutes [2, 6]: 21 ng/mL
concentration at 300 minutes [2, 6]: 18 ng/mL
concentration at 360 minutes [2, 6]: 22 ng/mL
concentration at 420 minutes [2, 6]: 25 ng/mL
concentration at 480 minutes [2, 6]: 12 ng/mL
bioavailability ([2]; male, Sprague-Dawley, plasma, other: intranasal, 10 mg/kg): ~14%
concentration at 0 minutes [2, 7]: 0 ng/mL
concentration at 0.5 minutes [2, 7]: 0 ng/mL
concentration at 5 minutes [2, 7]: 0 ng/mL
concentration at 15 minutes [2, 7]: 24 ng/mL
concentration at 30 minutes [2, 7]: 43 ng/mL
concentration at 60 minutes [2, 7]: 59 ng/mL
concentration at 120 minutes [2, 7]: 75 ng/mL
concentration at 160 minutes [2, 7]: 54 ng/mL
concentration at 240 minutes [2, 7]: 24 ng/mL
concentration at 300 minutes [2, 7]: 20 ng/mL
concentration at 360 minutes [2, 7]: 19 ng/mL
concentration at 420 minutes [2, 7]: 16 ng/mL
concentration at 480 minutes [2, 7]: 11 ng/mL
concentration at 0 minutes [2, 8]: 0 ng/mL
concentration at 0.5 minutes [2, 8]: 0 ng/mL
concentration at 5 minutes [2, 8]: 0 ng/mL
concentration at 15 minutes [2, 8]: 3 ng/mL
concentration at 30 minutes [2, 8]: 13 ng/mL
concentration at 60 minutes [2, 8]: 26 ng/mL
concentration at 120 minutes [2, 8]: 38 ng/mL
concentration at 160 minutes [2, 8]: 36 ng/mL
concentration at 240 minutes [2, 8]: 51 ng/mL
concentration at 300 minutes [2, 8]: 19 ng/mL
concentration at 360 minutes [2, 8]: 17 ng/mL
concentration at 420 minutes [2, 8]: 16 ng/mL
concentration at 480 minutes [2, 8]: 16 ng/mL
